Source: PubChem BioAssay (NCI)
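Five compound concentrations were applied to cells in 96-well plates for 48 hours; endpoints were derived by simple linear interpolation of the resulting dose-response curve. TGI denotes the concentration required for complete inhibition of growth.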

Columns and labels:
Assay in all cases: inhibition of tumour cell growth, NCI panel, 48 h
786-0 renal = system: 786-0 renal
A498 renal = system: A498 renal
A549 NSCLC = system: A549 NSCLC
ACHN renal = system: ACHN renal
BT-549 breast = system: BT-549 breast
CAKI-1 renal = system: CAKI-1 renal
CCRF-CEM leukemia = system: CCRF-CEM leukemia
EKVX NSCLC = system: EKVX NSCLC
HCT-116 colon = system: HCT-116 colon
HCT-15 colon = system: HCT-15 colon
HL-60(TB) leukemia = system: HL-60(TB) leukemia
HOP-62 NSCLC = system: HOP-62 NSCLC
HOP-92 NSCLC = system: HOP-92 NSCLC
HS 578T breast = system: HS 578T breast
HT29 colon = system: HT29 colon
IGROV1 ovarian = system: IGROV1 ovarian
KM12 colon = system: KM12 colon
LOX IMVI melanoma = system: LOX IMVI melanoma
M14 melanoma = system: M14 melanoma
MALME-3M melanoma = system: MALME-3M melanoma
MCF7 breast = system: MCF7 breast
MDA-MB-231 breast = system: MDA-MB-231 breast
MDA-MB-435 = system: MDA-MB-435
MDA-N = system: MDA-N
NCI-H226 lung = system: NCI-H226 lung
NCI-H23 lung = system: NCI-H23 lung
NCI-H460 lung = system: NCI-H460 lung
NCI-H522 lung = system: NCI-H522 lung
NCI/ADR-RES ovarian = system: NCI/ADR-RES ovarian
OVCAR-3 ovarian = system: OVCAR-3 ovarian
OVCAR-4 ovarian = system: OVCAR-4 ovarian
OVCAR-5 ovarian = system: OVCAR-5 ovarian
OVCAR-8 ovarian = system: OVCAR-8 ovarian
PC-3 prostate = system: PC-3 prostate
RPMI-8226 leukemia = system: RPMI-8226 leukemia
RXF 393 renal = system: RXF 393 renal
SF-268 CNS = system: SF-268 CNS
SF-295 CNS = system: SF-295 CNS
SF-539 CNS = system: SF-539 CNS
SK-MEL-2 melanoma = system: SK-MEL-2 melanoma
SK-MEL-28 melanoma = system: SK-MEL-28 melanoma
SK-MEL-5 melanoma = system: SK-MEL-5 melanoma
SK-OV-3 ovarian = system: SK-OV-3 ovarian
SN12C renal = system: SN12C renal
SNB-75 CNS = system: SNB-75 CNS
SW-620 colon = system: SW-620 colon
T-47D breast = system: T-47D breast
TK-10 renal = system: TK-10 renal
U251 CNS = system: U251 CNS
UACC-257 melanoma = system: UACC-257 melanoma
UACC-62 melanoma = system: UACC-62 melanoma
UO-31 renal = system: UO-31 renal
COLO 205 colon = system: COLO 205 colon
DU-145 prostate = system: DU-145 prostate
HCC-2998 colon = system: HCC-2998 colon
K-562 leukemia = system: K-562 leukemia
MOLT-4 leukemia = system: MOLT-4 leukemia
SNB-19 CNS = system: SNB-19 CNS
SR leukemia = system: SR leukemia

Measured: TGI

CCOc1ccc(NC(=O)C(=O)C2C(=O)Nc3ccccc3S2=O)cc1 (configuration not stated)
not listed: COLO 205 colon | DU-145 prostate | HCC-2998 colon | K-562 leukemia | MOLT-4 leukemia | SNB-19 CNS | SR leukemia
> 100 µM: all other assays above

CNC(=S)N/N=C(\C)c1cc(OC)ccc1O
not listed: HT29 colon | MCF7 breast | NCI-H226 lung | TK-10 renal
> 100 µM: all other assays above
